According to patent publication US20140303092A1 (CHIMERIX, INC., priority 2011, published 2014):

Assay: Study HDP-CDV-201: safety and tolerability (adverse events, laboratory abnormalities, discontinuations)
Assay type: in vivo, human (adult allogeneic HSCT recipients)
Protocol: Clinical Studies of HDP-CDV were performed and described in detail in the following Examples. For example, HDP-CDV-201 is a placebo-controlled, dose-escalating trial in HSCT CMV (R+) recipients, evaluating the ability of HDP-CDV to prevent or control CMV infection was carried out. Five cohorts were established in which participants or subjects received either placebo or the HDP-CDV orally, in doses ranging from 40 mg weekly (QW) to 200 mg twice weekly (BIW). Subjects who were post-HSCT were enrolled at the time of engraftment and randomized to HDP-CDV or placebo (3 to 1 ratio) and received blinded therapy until approximately 100 day post-transplantation. HDP-CDV doses were 40 mg QW, 100 mg QW, 200 mg QW, 200 mg BIW and 100 mg BIW. Escalation to the next dose was decided by the data monitoring committee after review of the safety data from the previous Cohort. Subjects who developed CMV disease or CMV infection requiring pre-emptive therapy with local standard of care were discontinued from blinded therapy and followed for 4 weeks. Subjects who completed treatment with blinded therapy were followed for 8 weeks post-therapy.
Data from Study HDP-CDV-201 also provided characterization of the safety and tolerability profile of HDP-CDV when administered for the prevention or control of CMV infection in high risk (R^+) post-HSCT adult subjects.
The Safety population (SAFETY) included all randomized subjects who took at least one dose of study treatment. This population was used to summarize safety outcomes based on the treatment actually received, in cases where a subject was treated contrary to the randomization schedule.
The safety and tolerability profile of HDP-CDV, including subject demographics and Baseline characteristics; the AE profile; and laboratory abnormalities of interest were analyzed in the cohorts followed in this investigation.
Subjects completing the treatment period received a full course of study medication; those completing the entire study attended visits through 8 weeks of follow up. Subjects who discontinued treatment may have done so for protocol specified reasons (e.g. development of clinically significant CMV infection requiring preemptive treatment with excluded anti-CMV medications) or for other reasons (e.g., withdrawal, adverse events, loss to follow-up). The disposition of subjects in Study HDP-CDV-201 during the double-blind, placebo-controlled treatment period (through Week 11) is listed by dosing Cohort in TABLE 23.
Adverse events were examined by severity to ensure that all safety signals were identified in this study population. Because of the frequency of events in HSCT recipients, particular attention was given to evaluation of Grade 3 […], 4 (severe), and 5 (fatal) adverse events.
Only those preferred terms for which at least one Grade 3 or higher event was experienced in any treatment group are listed. Cytomegalovirus-related AEs are excluded from this analysis.
HDP-CDV is a lipid conjugate of CDV. Because CDV is known to have adverse effects on renal function and bone marrow, decreased GFR and persistent neutropenia were identified as AEs of special interest. Key renal and hematological (TABLE 30) laboratory parameters were measured and listed below by Study HDP-CDV-201 treatment groups. TABLE 30 includes abnormal levels of serum creatinine, neutrophils, platelets, WBCs, and hemoglobin and includes data at Screening and during the treatment period.
A common metric for unit based dosing of medications is by weight (mg/kg). When the distribution of weights was examined for all subjects participating in the study, the median was 78 kg and the lower 25th percentile weight was approximately 65 kg, which translates to a cut-off of ˜3 mg/kg for a 200 mg total weekly dose. Based upon this approach, a cut-off of 3 mg/kg was used to assess the frequency of diarrhea and associated GI AEs reported for the subjects in Cohorts 3 or 4a (TABLE 40).

[1] = Cohort 3, 200 mg QW, through Week 11

CCCCCCCCCCCCCCCCOCCCOP(=O)(O)COC(CO)Cn1ccc(N)nc1=O (stereo not drawn) [HDP-CDV]
TEAE Vomiting Overall Frequency, subjects (Cohort 3, 200 mg QW): 6 (15.4%) | Total Bilirubin (Screening) >1-[…] ULN, subjects (Cohort 3, 200 mg QW): 0 | Total Bilirubin (Screening) >1.5-3 × ULN, subjects (Cohort 3, 200 mg QW): 0 | Total Bilirubin (Screening) >3-10 × ULN, subjects (Cohort 3, 200 mg QW): 0 | Total Bilirubin (Screening) >10 × ULN, subjects (Cohort 3, 200 mg QW): 0 | Total Bilirubin (any time during therapy) >1-[…] ULN, subjects (Cohort 3, 200 mg QW): 1 (2.6%) | Total Bilirubin (any time during therapy) >1.5-3 × ULN, subjects (Cohort 3, 200 mg QW): 3 (7.9%) | Total Bilirubin (any time during therapy) >3-10 × ULN, subjects (Cohort 3, 200 mg QW): 0 | Total Bilirubin (any time during therapy) >10 × ULN, subjects (Cohort 3, 200 mg QW): 0 | Abdominal pain leading to study drug withdrawal (Cohort 3, 200 mg QW, N = 39): 0% | All AEs leading to withdrawal (Cohort 3, 200 mg QW, N = 39): 15 (38.5%) | Diarrhoea leading to study drug withdrawal (Cohort 3, 200 mg QW, N = 39): 1 (2.6%) | Dyspepsia leading to study drug withdrawal (Cohort 3, 200 mg QW, N = 39): 2 (5.1%) | Nausea leading to study drug withdrawal (Cohort 3, 200 mg QW, N = 39): 0% | TEAE ALT increased (Cohort 3, 200 mg QW, N = 39): 2 (5.1%) n (%) | TEAE AST increased (Cohort 3, 200 mg QW, N = 39): 1 (2.6%) n (%) | TEAE Abdominal pain (Cohort 3, 200 mg QW, N = 39): 5 (12.8%) n (%) | TEAE Abdominal pain, Upper (Cohort 3, 200 mg QW, N = 39): 1 (2.6%) n (%) | TEAE Acute GVHD (Cohort 3, 200 mg QW, N = 39): 13 (33.3%) n (%) | TEAE Acute Myeloid Leukemia recurrent (Cohort 3, 200 mg QW, N = 39): 0 n (%) | TEAE Acute Renal Failure (Cohort 3, 200 mg QW, N = 39): 0 n (%) | TEAE Anxiety (Cohort 3, 200 mg QW, N = 39): 3 (7.7%) n (%) | TEAE Arthralgias (Cohort 3, 200 mg QW, N = 39): 1 (2.6%) n (%) | TEAE Back Pain (Cohort 3, 200 mg QW, N = 39): 2 (5.1%) n (%) | TEAE Blood lactate dehydrogenase increased (Cohort 3, 200 mg QW, N = 39): 0 n (%) | TEAE Creatinine increased (Cohort 3, 200 mg QW, N = 39): 3 (7.7%) n (%) | TEAE Cytomegalovirus viremia (Cohort 3, 200 mg QW, N = 39): 7 (17.9%) n (%) | TEAE Decreased appetite (Cohort 3, 200 mg QW, N = 39): 3 (7.7%) n (%) | TEAE Diarrhoea (Cohort 3, 200 mg QW, N = 39): 13 (33.3%) n (%) | TEAE Dysgeusia (Cohort 3, 200 mg QW, N = 39): 2 (5.1%) n (%) | TEAE Fatigue (Cohort 3, 200 mg QW, N = 39): 5 (12.8%) n (%) | TEAE GI Reflux Disease (Cohort 3, 200 mg QW, N = 39): 2 (5.1%) n (%) | TEAE Gamma-glutamyltransferase increased (Cohort 3, 200 mg QW, N = 39): 0 n (%) | TEAE Generalized oedema (Cohort 3, 200 mg QW, N = 39): 0 n (%) | TEAE Hyperbilirubinaemia (Cohort 3, 200 mg QW, N = 39): 3 (7.7%) n (%) | TEAE Hyperglycaemia (Cohort 3, 200 mg QW, N = 39): 1 (2.6%) n (%) | TEAE Hyperkalemia (Cohort 3, 200 mg QW, N = 39): 1 (2.6%) n (%) | TEAE Hypocalcaemia (Cohort 3, 200 mg QW, N = 39): 0 n (%) | TEAE Hypokalaemia (Cohort 3, 200 mg QW, N = 39): 5 (12.8%) n (%) | TEAE Hyponatraemia (Cohort 3, 200 mg QW, N = 39): 7 (17.9%) n (%) | TEAE Increased leukocytosis (Cohort 3, 200 mg QW, N = 39): 2 (5.1%) n (%) | TEAE Insomnia (Cohort 3, 200 mg QW, N = 39): 5 (12.8%) n (%) | TEAE Liver function test abnormal (Cohort 3, 200 mg QW, N = 39): 2 (5.1%) n (%) | TEAE Malnutrition (Cohort 3, 200 mg QW, N = 39): 1 (2.6%) n (%) | TEAE Nausea (Cohort 3, 200 mg QW, N = 39): 11 (28.2%) n (%) | TEAE Neutropenia (Cohort 3, 200 mg QW, N = 39): 4 (10.3%) n (%) | TEAE Oedema peripheral (Cohort 3, 200 mg QW, N = 39): 3 (7.7%) n (%) | TEAE Oral Candidiasis (Cohort 3, 200 mg QW, N = 39): 2 (5.1%) n (%) | TEAE Pneumonia (Cohort 3, 200 mg QW, N = 39): 0 n (%) | TEAE Pyrexia (Cohort 3, 200 mg QW, N = 39): 7 (17.9%) n (%) | TEAE Recurrent flatulence (Cohort 3, 200 mg QW, N = 39): 1 (2.6%) n (%) | TEAE Renal Failure (Cohort 3, 200 mg QW, N = 39): 0 n (%) | TEAE Staphylococcal Bacteremia (Cohort 3, 200 mg QW, N = 39): 1 (2.6%) n (%) | TEAE Thrombocytopenia (Cohort 3, 200 mg QW, N = 39): 0 n (%) | TEAE Tremor (Cohort 3, 200 mg QW, N = 39): 2 (5.1%) n (%) | TEAE Vomiting (Cohort 3, 200 mg QW, N = 39): 6 (15.4%) n (%) | Vomiting leading to study drug withdrawal (Cohort 3, 200 mg QW, N = 39): 0% | All AEs, Grade 5 (deaths) (Cohort 3, 200 mg QW, N = 39, entire study duration): 3 (7.7%) | Subjects completed treatment [1]: 18 (46.2%) n (%) | Subjects who permanently discontinued treatment [1]: 21 (53.8%) n (%) | TEAE Abdominal pain Grade 2, subjects (Cohort 3, 200 QW >3 mg/kg): 0 | TEAE Abdominal pain Grade 3, subjects (Cohort 3, 200 QW >3 mg/kg): 1 (7.1%) | TEAE Abdominal pain Grade 4, subjects (Cohort 3, 200 QW >3 mg/kg): 0 | TEAE Abdominal pain Grade 5, subjects (Cohort 3, 200 QW >3 mg/kg): 0 | TEAE Abdominal pain Overall Frequency, subjects (Cohort 3, 200 QW >3 mg/kg): 2 (14.3%) | TEAE Diarrhea Grade 2, subjects (Cohort 3, 200 QW >3 mg/kg): 4 (28.6%) | TEAE Diarrhea Grade 3, subjects (Cohort 3, 200 QW >3 mg/kg): 1 (7.1%) | TEAE Diarrhea Grade 4, subjects (Cohort 3, 200 QW >3 mg/kg): 0 | TEAE Diarrhea Grade 5, subjects (Cohort 3, 200 QW >3 mg/kg): 0 | TEAE Diarrhea Overall Frequency, subjects (Cohort 3, 200 QW >3 mg/kg): 8 (57.1%) | TEAE Hypokalaemia Grade 2, subjects (Cohort 3, 200 QW >3 mg/kg): 1 (7.1%) | TEAE Hypokalaemia Grade 3, subjects (Cohort 3, 200 QW >3 mg/kg): 0 | TEAE Hypokalaemia Grade 4, subjects (Cohort 3, 200 QW >3 mg/kg): 0 | TEAE Hypokalaemia Grade 5, subjects (Cohort 3, 200 QW >3 mg/kg): 0 | TEAE Hypokalaemia, subjects (Cohort 3, 200 QW >3 mg/kg): 4 (28.6%) | TEAE Nausea Grade 2, subjects (Cohort 3, 200 QW >3 mg/kg): 1 (7.1%) | TEAE Nausea Grade 3, subjects (Cohort 3, 200 QW >3 mg/kg): 0 | TEAE Nausea Grade 4, subjects (Cohort 3, 200 QW >3 mg/kg): 0 | TEAE Nausea Grade 5, subjects (Cohort 3, 200 QW >3 mg/kg): 0 | TEAE Nausea Overall Frequency, subjects (Cohort 3, 200 QW >3 mg/kg): 3 (21.4%) | TEAE Vomiting Grade 2, subjects (Cohort 3, 200 QW >3 mg/kg): 0 | TEAE Vomiting Grade 3, subjects (Cohort 3, 200 QW >3 mg/kg): 0 | TEAE Vomiting Grade 4, subjects (Cohort 3, 200 QW >3 mg/kg): 0 | TEAE Vomiting Grade 5, subjects (Cohort 3, 200 QW >3 mg/kg): 0 | TEAE Vomiting Overall Frequency, subjects (Cohort 3, 200 QW >3 mg/kg): 2 (14.3%) | TEAE Abdominal pain Grade 2, subjects (Cohort 3, 200 QW ≦3 mg/kg): 1 (4.0%) | TEAE Abdominal pain Grade 3, subjects (Cohort 3, 200 QW ≦3 mg/kg): 0 | TEAE Abdominal pain Grade 4, subjects (Cohort 3, 200 QW ≦3 mg/kg): 0 | TEAE Abdominal pain Grade 5, subjects (Cohort 3, 200 QW ≦3 mg/kg): 0 | TEAE Abdominal pain Overall Frequency, subjects (Cohort 3, 200 QW ≦3 mg/kg): 3 (12%) | TEAE Diarrhea Grade 2, subjects (Cohort 3, 200 QW ≦3 mg/kg): 1 (4.0%) | TEAE Diarrhea Grade 3, subjects (Cohort 3, 200 QW ≦3 mg/kg): 1 (4.0%) | TEAE Diarrhea Grade 4, subjects (Cohort 3, 200 QW ≦3 mg/kg): 0 | TEAE Diarrhea Grade 5, subjects (Cohort 3, 200 QW ≦3 mg/kg): 0 | TEAE Diarrhea Overall Frequency, subjects (Cohort 3, 200 QW ≦3 mg/kg): 5 (20%) | TEAE Hypokalaemia Grade 2, subjects (Cohort 3, 200 QW ≦3 mg/kg): 1 (4.0%) | TEAE Hypokalaemia Grade 3, subjects (Cohort 3, 200 QW ≦3 mg/kg): 0 | TEAE Hypokalaemia Grade 4, subjects (Cohort 3, 200 QW ≦3 mg/kg): 0 | TEAE Hypokalaemia Grade 5, subjects (Cohort 3, 200 QW ≦3 mg/kg): 0 | TEAE Hypokalaemia, subjects (Cohort 3, 200 QW ≦3 mg/kg): 1 (4.0%) | TEAE Nausea Grade 2, subjects (Cohort 3, 200 QW ≦3 mg/kg): 3 (12%) | TEAE Nausea Grade 3, subjects (Cohort 3, 200 QW ≦3 mg/kg): 1 (4.0%) | TEAE Nausea Grade 4, subjects (Cohort 3, 200 QW ≦3 mg/kg): 0 | TEAE Nausea Grade 5, subjects (Cohort 3, 200 QW ≦3 mg/kg): 0 | TEAE Nausea Overall Frequency, subjects (Cohort 3, 200 QW ≦3 mg/kg): 8 (32%) | TEAE Vomiting Grade 2, subjects (Cohort 3, 200 QW ≦3 mg/kg): 1 (4.0%) | TEAE Vomiting Grade 3, subjects (Cohort 3, 200 QW ≦3 mg/kg): 1 (4.0%) | TEAE Vomiting Grade 4, subjects (Cohort 3, 200 QW ≦3 mg/kg): 0 | TEAE Vomiting Grade 5, subjects (Cohort 3, 200 QW ≦3 mg/kg): 0 | TEAE Vomiting Overall Frequency, subjects (Cohort 3, 200 QW ≦3 mg/kg): 4 (16%) | Abnormal ALT >3-5x ULN, Any Time Between Week 2 and Week 10, subjects (Cohort 3, >3.0 mg/kg/wk): 1 (7.1%)
